Reference: ChEMBL document CHEMBL2029307, “Identification of aryl dihydrouracil derivatives as palm initiation site inhibitors of HCV NS5B polymerase” (Bioorg Med Chem Lett, 2012)

Experiments:
[1] = test system: Hepatitis C virus; test: Inhibition of HCV genotype 1b patient isolate recombinant NS5B polymerase expressed in Escherichia coli DH5alpha assessed as inhibition of [3H]UTP incorporation after 2 hrs by scintillation counting; set-up: species or system Hepatitis C virus subtype 1b
[2] = Inhibition of HCV genotype 3a NS5B polymerase assessed as inhibition of [3H]UTP incorporation after 2 hrs by scintillation counting; set-up: species or system Hepatitis C virus subtype 3a
[3] = Inhibition of HCV genotype 2a NS5B polymerase assessed as inhibition of [3H]UTP incorporation after 2 hrs by scintillation counting; set-up: species or system Hepatitis C virus subtype 2a
[4] = test system: Hepatitis C virus subtype 1a; test: Resistance ratio of IC50 for HCV genotype 1a NS5B polymerase C316Y mutant to IC50 for HCV genotype 1a wildtype NS5B polymerase
[5] = Inhibition of HCV genotype 1a H77 recombinant NS5B polymerase expressed in Escherichia coli DH5alpha assessed as inhibition of [3H]UTP incorporation after 2 hrs by scintillation counting; set-up: species or system Hepatitis C virus (isolate H77)
[6] = test system: Hepatitis C virus subtype 1a; test: Resistance ratio of IC50 for HCV genotype 1a NS5B polymerase T448Y mutant to IC50 for HCV genotype 1a wildtype NS5B polymerase
[7] = Inhibition of HCV genotype 1b BK recombinant NS5B polymerase expressed in Escherichia coli DH5alpha assessed as inhibition of [3H]UTP incorporation after 2 hrs by scintillation counting; set-up: species or system Hepatitis C virus (isolate BK)
[8] = test system: Hepatitis C virus; test: Antiviral activity against HCV genotype 1b infected in HuH7 cells by SEAP reporter gene assay; assay type: functional, organism-based, Hepacivirus hominis; settings: Huh-7
[9] = Inhibition of HCV genotype 2b NS5B polymerase assessed as inhibition of [3H]UTP incorporation after 2 hrs by scintillation counting; set-up: species or system Hepatitis C virus subtype 2b
[10] = test system: Hepatitis C virus subtype 1a; test: Resistance ratio of IC50 for HCV genotype 1a NS5B polymerase M423T mutant to IC50 for HCV genotype 1a wildtype NS5B polymerase
[11] = test system: Hepatitis C virus subtype 1a; test: Resistance ratio of IC50 for HCV genotype 1a NS5B polymerase M414T mutant to IC50 for HCV genotype 1a wildtype NS5B polymerase
[12] = test system: Hepatitis C virus subtype 1a; test: Resistance ratio of IC50 for HCV genotype 1a NS5B polymerase P495A mutant to IC50 for HCV genotype 1a wildtype NS5B polymerase
[13] = Cytotoxicity against human HuH7 cells by MTT assay; assay type: cell-based, Huh-7; settings: read-out: TD50 (the source's name)

COc1cc(N)c(N2CCC(=O)NC2=O)cc1C(C)(C)C
IC50 [1]: 1.7 µM

COc1ccc(N2CCC(=O)NC2=O)cc1C(C)(C)C
IC50 [1]: 6.4 µM

COc1cc([N+](=O)[O-])c(N2CCC(=O)NC2=O)cc1C(C)(C)C
IC50 [2]: > 200 µM
IC50 [3]: > 200 µM
Ratio IC50 [4]: > 100
IC50 [5]: 0.58 µM
Ratio IC50 [6]: 41
IC50 [7]: 0.36 µM
EC50 [8]: 0.84 µM
IC50 [9]: > 200 µM
Ratio IC50 [10]: 5
Ratio IC50 [11]: 24
Ratio IC50 [12]: 5
IC50 [1]: 0.4 µM
CC50 [13]: > 50 µM

CC(C)(C)c1cccc(N2CCC(=O)NC2=O)c1
IC50 [1]: 47 µM

COc1cc(N(C)C)c(N2CCC(=O)NC2=O)cc1C(C)(C)C
IC50 [1]: 6.7 µM

COc1c(Br)cc(N2CCC(=O)N(C)C2=O)cc1C(C)(C)C
IC50 [1]: > 200 µM

CC(C)(C)c1cc(N2CCC(=O)NC2=O)ccc1O
IC50 [1]: 7.6 µM

COc1cc(NC(C)=O)c(N2CCC(=O)NC2=O)cc1C(C)(C)C
IC50 [1]: 6.5 µM

COc1c(Br)cc(N2CCC(=O)NC2=O)cc1C(C)(C)C
IC50 [1]: 7.4 µM

O=C1CCN(c2cccc(C(F)(F)F)c2)C(=O)N1
IC50 [1]: > 200 µM
